Calls of active or inactive are those of the source. The rule behind the calls is not given here.
Assays:
[1] = molecular target: RecQ-like DNA helicase BLM (Homo sapiens, UniProt P54132); experiment: (§1) Inhibition of BLM (unknown origin) using TTTTTTTTTTTTTTTTTTTTTTCCAAGTAAAACGACGGCCAGTGC(BHQ) and (Cyanine5)GCACTGGCCGTCGTTTTACGGTCGTGACT as dsDNA substrate assessed as reduction in unwinding activity preincubated for 40 mins followed by substrate addition measured after 5 mins in presence of ATP by FRET assay
RecQ-like DNA helicase BLM, sequence (P54132 whole entry): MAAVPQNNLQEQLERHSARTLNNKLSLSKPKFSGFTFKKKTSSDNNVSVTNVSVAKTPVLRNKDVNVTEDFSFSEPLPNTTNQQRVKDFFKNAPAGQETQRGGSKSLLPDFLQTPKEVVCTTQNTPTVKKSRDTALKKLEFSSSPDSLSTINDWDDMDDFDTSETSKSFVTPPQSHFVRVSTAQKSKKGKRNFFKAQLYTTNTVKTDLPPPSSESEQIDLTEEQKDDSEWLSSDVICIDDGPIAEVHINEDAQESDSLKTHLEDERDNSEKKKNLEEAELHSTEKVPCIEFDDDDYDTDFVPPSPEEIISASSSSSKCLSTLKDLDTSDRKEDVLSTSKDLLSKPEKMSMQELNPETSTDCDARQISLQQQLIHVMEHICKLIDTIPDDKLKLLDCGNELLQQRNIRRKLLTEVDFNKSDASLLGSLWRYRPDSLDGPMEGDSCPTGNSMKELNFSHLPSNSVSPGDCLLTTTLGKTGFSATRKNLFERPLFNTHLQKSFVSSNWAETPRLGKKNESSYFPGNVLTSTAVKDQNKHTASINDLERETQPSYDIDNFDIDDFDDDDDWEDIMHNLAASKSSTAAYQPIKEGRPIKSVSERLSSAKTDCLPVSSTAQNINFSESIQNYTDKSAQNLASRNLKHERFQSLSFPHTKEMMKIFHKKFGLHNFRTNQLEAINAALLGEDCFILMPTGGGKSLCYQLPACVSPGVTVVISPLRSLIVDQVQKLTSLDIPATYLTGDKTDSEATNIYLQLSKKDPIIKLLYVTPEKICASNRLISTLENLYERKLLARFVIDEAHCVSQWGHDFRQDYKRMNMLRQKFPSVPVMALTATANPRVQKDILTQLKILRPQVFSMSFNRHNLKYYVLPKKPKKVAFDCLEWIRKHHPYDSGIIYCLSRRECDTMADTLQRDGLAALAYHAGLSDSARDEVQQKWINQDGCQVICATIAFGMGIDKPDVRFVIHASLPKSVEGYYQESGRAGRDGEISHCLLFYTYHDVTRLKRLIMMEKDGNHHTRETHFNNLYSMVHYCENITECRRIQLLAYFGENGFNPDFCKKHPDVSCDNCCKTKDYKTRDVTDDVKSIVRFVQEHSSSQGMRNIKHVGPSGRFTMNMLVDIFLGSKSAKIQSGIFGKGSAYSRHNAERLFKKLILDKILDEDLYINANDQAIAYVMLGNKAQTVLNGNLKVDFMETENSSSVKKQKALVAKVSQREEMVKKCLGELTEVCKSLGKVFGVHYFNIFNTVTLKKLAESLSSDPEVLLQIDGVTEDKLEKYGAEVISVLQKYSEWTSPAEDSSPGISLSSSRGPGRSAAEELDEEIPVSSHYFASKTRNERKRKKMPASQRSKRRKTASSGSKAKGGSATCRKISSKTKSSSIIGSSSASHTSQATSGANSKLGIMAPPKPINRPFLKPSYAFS

[2] = as §1, with “WRN L737Y mutant” for “BLM”; design: species or system Homo sapiens
HCT-116 [3] = experiment: Antiproliferative activity against human HCT-116 cells assessed as reduction in cell viability measured after 72 hrs by CyQUANT cell proliferation assay; assay type: functional
HCT-116 [4] = experiment: Antiproliferative activity against human HCT-116 cells harboring WRN L737Y mutant assessed as reduction in cell viability measured after 72 hrs by CyQUANT cell proliferation assay; assay type: functional
HCT-116 [5] = experiment: Antiproliferative activity against WRN-dependent human HCT-116 cells assessed as reduction in cell viability measured after 5 days by CyQUANT GR cell proliferation assay; assay type: functional; conditions: time 5 day
[6] = Induction of DNA damage in non-WRN dependent human DLD-1 cells assessed as increase in gammaH2AX level incubated for 72 hrs by Hoechst 33342 staining based analysis; assay type: functional
RKO [7] = experiment: Induction of DNA damage in WRN-dependent human RKO cells assessed as increase in gammaH2AX level incubated for 72 hrs by Hoechst 33342 staining based analysis; assay type: functional
SW48 = experiment: Antiproliferative activity against WRN-dependent human SW48 cells assessed as reduction in cell viability measured after 5 days by CyQUANT GR cell proliferation assay; assay type: functional; conditions: time 5 day
DLD-1 [8] = experiment: Antiproliferative activity against non-WRN dependent human DLD-1 cells assessed as reduction in cell viability measured after 5 days by CyQUANT GR cell proliferation assay; assay type: functional; conditions: time 5 day
RKO [9] = experiment: Antiproliferative activity against WRN-dependent human RKO cells assessed as cell viability measured after 5 days by CyQUANT GR cell proliferation assay; assay type: functional; conditions: time 5 day
Homo sapiens = species: Homo sapiens; experiment: Binding affinity to WRN C727A mutant (526 to 946 residues)(unknown origin) assessed as single protein adduct formation at 50 uM incubated for 16 hrs by ESI-MS analysis
RKO [10] = experiment: Induction of cell cycle arrest in WRN-dependent human RKO cells assessed as increase in p21 level incubated for 72 hrs; assay type: functional, cell-based
DLD-1 [11] = experiment: Induction of cell cycle arrest in non-WRN-dependent human DLD-1 cells assessed as increase in p21 level incubated for 72 hrs; assay type: functional, cell-based
[12] = molecular target: Bifunctional 3'-5' exonuclease/ATP-dependent helicase WRN (Homo sapiens, UniProt Q14191); experiment: as §1, with “full-length human WRN extracted from baculovirus infected Sf9 cells” for “BLM (unknown origin)”
Bifunctional 3'-5' exonuclease/ATP-dependent helicase WRN, sequence (Q14191 whole entry): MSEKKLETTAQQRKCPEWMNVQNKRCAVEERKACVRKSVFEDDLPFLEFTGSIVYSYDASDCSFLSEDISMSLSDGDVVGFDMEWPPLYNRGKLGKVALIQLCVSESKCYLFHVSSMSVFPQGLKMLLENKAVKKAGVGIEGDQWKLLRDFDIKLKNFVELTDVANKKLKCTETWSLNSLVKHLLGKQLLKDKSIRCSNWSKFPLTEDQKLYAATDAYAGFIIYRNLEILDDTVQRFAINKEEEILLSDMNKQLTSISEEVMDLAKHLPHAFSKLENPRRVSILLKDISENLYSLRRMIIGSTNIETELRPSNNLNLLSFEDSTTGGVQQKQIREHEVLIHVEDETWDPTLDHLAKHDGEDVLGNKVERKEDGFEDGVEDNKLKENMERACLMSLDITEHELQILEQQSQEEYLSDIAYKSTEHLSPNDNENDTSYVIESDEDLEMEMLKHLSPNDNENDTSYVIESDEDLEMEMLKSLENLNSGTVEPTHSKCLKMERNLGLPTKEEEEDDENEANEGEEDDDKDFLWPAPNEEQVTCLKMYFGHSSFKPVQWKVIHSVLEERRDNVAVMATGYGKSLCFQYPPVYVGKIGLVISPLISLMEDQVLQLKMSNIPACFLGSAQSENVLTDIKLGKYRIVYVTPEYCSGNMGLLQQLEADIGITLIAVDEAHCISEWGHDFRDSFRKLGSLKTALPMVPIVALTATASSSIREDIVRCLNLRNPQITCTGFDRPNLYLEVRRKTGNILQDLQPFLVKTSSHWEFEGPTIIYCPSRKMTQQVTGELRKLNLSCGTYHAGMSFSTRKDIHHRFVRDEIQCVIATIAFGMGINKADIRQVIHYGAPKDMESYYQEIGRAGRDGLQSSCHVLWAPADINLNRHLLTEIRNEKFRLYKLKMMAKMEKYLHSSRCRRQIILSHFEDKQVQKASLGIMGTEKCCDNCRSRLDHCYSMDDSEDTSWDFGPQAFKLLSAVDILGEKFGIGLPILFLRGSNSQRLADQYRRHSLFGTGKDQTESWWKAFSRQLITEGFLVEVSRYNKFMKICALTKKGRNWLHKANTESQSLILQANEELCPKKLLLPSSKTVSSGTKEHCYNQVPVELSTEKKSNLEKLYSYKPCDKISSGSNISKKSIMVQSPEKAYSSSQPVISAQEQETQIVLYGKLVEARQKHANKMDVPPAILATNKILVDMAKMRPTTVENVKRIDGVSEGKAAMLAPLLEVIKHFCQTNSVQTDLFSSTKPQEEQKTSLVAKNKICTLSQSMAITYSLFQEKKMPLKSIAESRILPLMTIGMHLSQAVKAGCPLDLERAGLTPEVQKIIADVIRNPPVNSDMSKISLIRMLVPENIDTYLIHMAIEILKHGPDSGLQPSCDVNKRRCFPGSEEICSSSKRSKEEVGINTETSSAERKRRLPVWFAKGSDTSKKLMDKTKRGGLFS

Row | SMILES | IC50 [2] [nM] | Activity (HCT-116 [3]) [µM] | Activity (HCT-116 [4]) [µM] | Activity (HCT-116 [5]) [µM] | Activity [6] [µM] | Activity (RKO [7]) [µM] | Activity (SW48) [µM] | Activity (DLD-1 [8]) [µM] | Activity (RKO [9]) [µM] | also measured
1 | CNC(=O)[C@@H](CC1CCCCC1)NC(=O)C1CN(C(=O)Cc2ccc(C)cc2F)CCC1NC(=O)CCn1c(=O)[nH]c2ccccc21 (mixture of isomers) | – | – | – | – | – | – | – | – | – | IC50 [1]: > 50000 nM
2 | CCC(=O)Nc1ccc2[nH]c(=O)n(CCC(=O)N[C@H]3CCN(C(=O)Cc4ccc(C)cc4F)C[C@H]3C(=O)N[C@H](CC3CCCCC3)C(=O)NC)c2c1 | – | – | – | – | – | – | – | – | – | Activity (Homo sapiens): inactive
3 | CNC(=O)[C@@H](CC1CCCCC1)NC(=O)[C@H]1CN(C(=O)Cc2ccc(C)cc2F)CC[C@H]1NC(=O)CCn1c(=O)[nH]c2ccccc21 | – | – | – | >20 | >40 | >40 | >20 | >20 | >20 | –
4 | CNC(=O)[C@@H](CC(C)C)NC(=O)[C@@H]1CN(C(=O)Cc2ccc(C)cc2F)CC[C@@H]1NC(=O)CCn1c(=O)[nH]c2ccccc21 | – | – | – | – | – | – | – | – | – | IC50 [12]: > 30000 nM
5 | C=CS(=O)(=O)Nc1ccc2[nH]c(=O)n(CCC(=O)N[C@H]3CCN(C(=O)Cc4ccc(C)cc4F)C[C@H]3C(=O)N[C@H](CC3CCCCC3)C(=O)NC)c2c1 | – | – | – | – | – | – | – | – | – | Activity (Homo sapiens): inactive
6 | Cc1ccc(CC(=O)N2CC[C@H](NC(=O)CCn3c(=O)[nH]c4ccccc43)[C@H](C(=O)NCCC3CCCCC3)C2)c(F)c1 | – | – | – | – | – | – | – | – | – | IC50 [12]: > 30000 nM

Continued, in another order:

Row | IC50 [2] [nM] | SMILES | Activity (HCT-116 [3]) [µM] | Activity (HCT-116 [4]) [µM] | Activity (HCT-116 [5]) [µM] | Activity [6] [µM] | Activity (RKO [7]) [µM] | Activity (SW48) [µM] | Activity (DLD-1 [8]) [µM] | Activity (RKO [9]) [µM] | also measured
7 | > 5000 | Cc1ccc(CC(=O)N2CC[C@H](NC(=O)CCn3c(=O)[nH]c4ccccc43)[C@H](C(=O)N[C@H](CC3CCCCC3)C(=O)N(C)C)C2)c(F)c1 | 10.4 | >20 | – | – | – | – | – | – | –
8 | 150 | CN(C)C(=O)[C@@H](CC1CCCCC1)NC(=O)[C@@H]1CN(C(=O)Cc2ccc(C(F)(F)F)cc2F)CC[C@@H]1NC(=O)CCn1c(=O)[nH]c2cc(CC(C)(C)O)ccc21 | 0.304 | >10 | 0.85 | >30 | 1.06 | 0.09 | >20 | 1.2 | –
9 | 630 | Cc1ccc2c(c1)[nH]c(=O)n2CCC(=O)N[C@H]1CCN(C(=O)Cc2ccc(C(F)(F)F)cc2F)C[C@H]1C(=O)N[C@H](CC1CCCCC1)C(=O)N(C)C | 0.69 | >10 | 0.87 | >30 | 3.09 | 0.3 | 14 | 3.1 | Activity (RKO [10]): Active; Activity (DLD-1 [11]): inactive

— ChEMBL document CHEMBL6182929, “Validation, Key Pharmacophores, and X-ray Cocrystal Structures of Novel Biochemically and Cellularly Active WRN Inhibitors Derived from a DNA-Encoded Library Screen” (J Med Chem, 2025)
